# Laboratory results published in ChEMBL document CHEMBL1921690, “Synthesis and evaluation of pyridone-phenoxypropyl-R-2-methylpyrrolidine analogues as histamine H3 receptor antagonists” (Bioorg Med Chem Lett, 2011).
# How the values were obtained:
# [1] = Clearance in rat at 1 mg/kg, iv; assay type: ADME, organism-based; set-up: dose 1 mg/kg, route intravenous; conditions: in vivo
# [2] = Oral bioavailability in rat at 5 mg/kg; assay type: ADME, organism-based; conditions: in vivo
# Histamine H3 receptor [3] = molecular target: T1, Histamine H3 receptor (Homo sapiens, UniProt Q9Y5N1); assay: Displacement of [3H]NAMH from human histamine H3 receptor expressed in CHO cells; assay type: cell-based
# T1 sequence (Q9Y5N1 whole entry): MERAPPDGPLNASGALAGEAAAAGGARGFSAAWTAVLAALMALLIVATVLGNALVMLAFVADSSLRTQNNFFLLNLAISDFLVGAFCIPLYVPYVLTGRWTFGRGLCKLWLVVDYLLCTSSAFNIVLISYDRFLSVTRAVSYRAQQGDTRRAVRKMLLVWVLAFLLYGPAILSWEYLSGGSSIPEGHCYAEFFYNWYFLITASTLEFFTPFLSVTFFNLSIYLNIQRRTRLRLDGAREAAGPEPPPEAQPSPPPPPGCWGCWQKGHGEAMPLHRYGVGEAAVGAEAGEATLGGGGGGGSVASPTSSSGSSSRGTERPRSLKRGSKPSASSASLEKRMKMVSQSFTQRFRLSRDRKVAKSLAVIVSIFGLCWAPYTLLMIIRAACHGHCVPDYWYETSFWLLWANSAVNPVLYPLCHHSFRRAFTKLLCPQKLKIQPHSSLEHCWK
# Histamine H3 receptor [4] = molecular target: Histamine H3 receptor (Rattus norvegicus, UniProt Q9QYN8); assay: Displacement of [3H]NAMH from rat histamine H3 receptor expressed in CHO cells; assay type: cell-based
# Sequence of Histamine H3 receptor (Rattus norvegicus, UniProt Q9QYN8) (Q9QYN8 whole entry): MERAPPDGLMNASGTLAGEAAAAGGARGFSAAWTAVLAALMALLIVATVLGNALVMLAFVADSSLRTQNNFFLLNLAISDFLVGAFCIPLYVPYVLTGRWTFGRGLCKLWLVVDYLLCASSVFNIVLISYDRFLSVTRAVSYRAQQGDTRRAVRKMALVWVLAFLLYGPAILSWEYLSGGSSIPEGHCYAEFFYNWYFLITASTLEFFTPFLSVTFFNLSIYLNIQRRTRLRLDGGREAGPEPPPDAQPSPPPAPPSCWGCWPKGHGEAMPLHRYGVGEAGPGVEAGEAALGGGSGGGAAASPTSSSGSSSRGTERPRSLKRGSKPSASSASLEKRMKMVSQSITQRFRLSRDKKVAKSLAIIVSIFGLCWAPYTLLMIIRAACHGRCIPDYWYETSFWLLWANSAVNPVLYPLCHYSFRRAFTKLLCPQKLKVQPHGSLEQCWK
# Histamine H3 receptor [5] = molecular target: T1, Histamine H3 receptor; assay: Antagonist activity at human histamine H3 receptor expressed in CHO cells assessed as inhibition of RAHM-induced [35S]GTPgammaS binding after 4 hrs by beta liquid scintillation counting; assay type: functional, cell-based
# Rattus norvegicus [6] = assay: Induction of wake promoting activity in ip dosed Sprague-Dawley rat EEG/EMG model assessed as increase in AUC of wake latency after 4 hrs post dosing; assay type: functional, organism-based
# [7] = Half life in rat at 1 mg/kg, iv; assay type: ADME, organism-based; set-up: dose 1 mg/kg, route intravenous; conditions: in vivo
# [8] = Volume of distribution in rat at 1 mg/kg, iv; assay type: ADME, organism-based; set-up: dose 1 mg/kg, route intravenous; conditions: in vivo
# [9] = AUC (0 to t) in rat at 5 mg/kg, po; assay type: ADME, organism-based; set-up: dose 5 mg/kg, route oral; conditions: plasma
# [10] = Cmax in rat at 5 mg/kg, po; assay type: ADME, organism-based; set-up: dose 5 mg/kg, route oral; conditions: in vivo
# [11] = Ratio of drug level in brain to plasma in rat at 5 mg/kg, po; assay type: ADME, organism-based; set-up: dose 5 mg/kg, route oral; conditions: read-out: BPR
# [12] = Drug level in rat brain at 10 mg/kg, ip after 1 hr; assay type: ADME, organism-based; set-up: dose 10 mg/kg, route intraperitoneal; conditions: read-out: Drug uptake
# [13] = Ratio of drug level in brain to plasma in rat at 10 mg/kg, ip after 1 hr; assay type: ADME, organism-based; set-up: dose 10 mg/kg, route intraperitoneal; conditions: read-out: BPR
# [14] = Aqueous solubility of compound at pH 7.4; assay type: physicochemical
# [15] = Half life in human liver microsomes; assay type: ADME, Microsome
# [16] = Half life in mouse liver microsomes; assay type: ADME, Microsome
# [17] = Half life in rat liver microsomes; assay type: ADME, Microsome
# [18] = Half life in monkey liver microsomes; assay type: ADME, Macaca mulatta, Microsome; conditions: rhesus monkey
# Cytochrome P450 1A2 = molecular target: T2, Cytochrome P450 1A2 (Homo sapiens, UniProt P05177); assay: Inhibition of CYP1A2; assay type: ADME
# T2 sequence (P05177 whole entry): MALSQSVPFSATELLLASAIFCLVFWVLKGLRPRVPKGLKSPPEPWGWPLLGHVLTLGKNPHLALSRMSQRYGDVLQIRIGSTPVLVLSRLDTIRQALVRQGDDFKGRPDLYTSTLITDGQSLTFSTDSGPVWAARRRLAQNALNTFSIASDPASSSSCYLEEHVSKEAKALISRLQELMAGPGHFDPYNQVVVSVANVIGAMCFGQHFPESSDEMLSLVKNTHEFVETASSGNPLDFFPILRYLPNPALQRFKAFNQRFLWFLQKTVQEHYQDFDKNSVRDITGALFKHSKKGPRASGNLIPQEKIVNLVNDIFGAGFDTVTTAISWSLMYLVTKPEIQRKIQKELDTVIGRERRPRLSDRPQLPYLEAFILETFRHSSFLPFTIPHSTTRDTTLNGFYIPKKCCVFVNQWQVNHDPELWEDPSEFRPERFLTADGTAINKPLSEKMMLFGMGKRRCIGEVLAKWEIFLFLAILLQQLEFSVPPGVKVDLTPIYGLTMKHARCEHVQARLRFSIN
# Cytochrome P450 2C9 = Cytochrome P450 2C9 (Homo sapiens, UniProt P11712); assay: Inhibition of CYP2C9; assay type: ADME
# Sequence of Cytochrome P450 2C9 (P11712 whole entry): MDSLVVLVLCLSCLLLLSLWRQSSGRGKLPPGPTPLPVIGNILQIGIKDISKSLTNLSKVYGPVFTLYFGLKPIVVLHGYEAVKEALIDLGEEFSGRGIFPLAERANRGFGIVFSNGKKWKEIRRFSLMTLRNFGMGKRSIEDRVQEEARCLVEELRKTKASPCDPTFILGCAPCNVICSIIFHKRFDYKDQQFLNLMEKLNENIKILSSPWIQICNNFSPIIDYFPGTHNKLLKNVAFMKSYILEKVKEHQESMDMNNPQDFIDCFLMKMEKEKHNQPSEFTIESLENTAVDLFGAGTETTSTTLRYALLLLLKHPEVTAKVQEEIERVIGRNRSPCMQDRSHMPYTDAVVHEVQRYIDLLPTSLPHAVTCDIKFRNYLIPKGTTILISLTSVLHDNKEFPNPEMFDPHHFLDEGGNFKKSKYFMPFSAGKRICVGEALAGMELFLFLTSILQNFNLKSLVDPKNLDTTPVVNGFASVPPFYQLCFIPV
# Cytochrome P450 2C19 = Cytochrome P450 2C19 (Homo sapiens, UniProt P33261); assay: Inhibition of CYP2C19; assay type: ADME
# Sequence of Cytochrome P450 2C19 (P33261 whole entry): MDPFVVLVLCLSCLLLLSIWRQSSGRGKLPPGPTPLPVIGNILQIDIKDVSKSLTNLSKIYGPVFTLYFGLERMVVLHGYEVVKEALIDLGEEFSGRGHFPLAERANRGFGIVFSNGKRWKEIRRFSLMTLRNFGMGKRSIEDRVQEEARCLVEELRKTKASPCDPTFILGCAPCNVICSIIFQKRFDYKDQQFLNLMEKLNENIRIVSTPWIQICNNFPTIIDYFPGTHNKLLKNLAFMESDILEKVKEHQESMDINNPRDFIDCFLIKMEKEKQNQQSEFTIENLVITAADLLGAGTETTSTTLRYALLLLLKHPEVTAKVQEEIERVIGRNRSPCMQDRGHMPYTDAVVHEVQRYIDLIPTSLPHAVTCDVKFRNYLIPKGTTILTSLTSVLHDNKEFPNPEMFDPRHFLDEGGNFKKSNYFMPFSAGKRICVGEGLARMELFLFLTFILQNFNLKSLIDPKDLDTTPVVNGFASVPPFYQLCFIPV
# Cytochrome P450 2D6 = Cytochrome P450 2D6 (Homo sapiens, UniProt P10635); assay: Inhibition of CYP2D6; assay type: ADME
# Sequence of Cytochrome P450 2D6 (P10635 whole entry): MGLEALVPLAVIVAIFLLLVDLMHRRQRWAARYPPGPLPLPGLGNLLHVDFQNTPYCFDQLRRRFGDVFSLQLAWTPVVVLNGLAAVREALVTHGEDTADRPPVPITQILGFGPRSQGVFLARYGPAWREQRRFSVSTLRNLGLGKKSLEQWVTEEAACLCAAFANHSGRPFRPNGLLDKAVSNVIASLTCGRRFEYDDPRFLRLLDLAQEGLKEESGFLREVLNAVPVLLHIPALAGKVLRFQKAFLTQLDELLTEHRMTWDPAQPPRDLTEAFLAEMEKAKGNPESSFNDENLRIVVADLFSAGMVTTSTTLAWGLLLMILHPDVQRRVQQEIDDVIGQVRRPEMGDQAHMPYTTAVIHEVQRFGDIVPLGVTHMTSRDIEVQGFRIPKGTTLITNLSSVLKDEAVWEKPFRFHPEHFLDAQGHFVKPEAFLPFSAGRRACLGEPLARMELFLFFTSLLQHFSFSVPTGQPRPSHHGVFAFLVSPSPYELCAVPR
# Cytochrome P450 3A4 = Cytochrome P450 3A4 (Homo sapiens, UniProt P08684); assay: Inhibition of CYP3A4; assay type: ADME
# Sequence of Cytochrome P450 3A4 (P08684 whole entry): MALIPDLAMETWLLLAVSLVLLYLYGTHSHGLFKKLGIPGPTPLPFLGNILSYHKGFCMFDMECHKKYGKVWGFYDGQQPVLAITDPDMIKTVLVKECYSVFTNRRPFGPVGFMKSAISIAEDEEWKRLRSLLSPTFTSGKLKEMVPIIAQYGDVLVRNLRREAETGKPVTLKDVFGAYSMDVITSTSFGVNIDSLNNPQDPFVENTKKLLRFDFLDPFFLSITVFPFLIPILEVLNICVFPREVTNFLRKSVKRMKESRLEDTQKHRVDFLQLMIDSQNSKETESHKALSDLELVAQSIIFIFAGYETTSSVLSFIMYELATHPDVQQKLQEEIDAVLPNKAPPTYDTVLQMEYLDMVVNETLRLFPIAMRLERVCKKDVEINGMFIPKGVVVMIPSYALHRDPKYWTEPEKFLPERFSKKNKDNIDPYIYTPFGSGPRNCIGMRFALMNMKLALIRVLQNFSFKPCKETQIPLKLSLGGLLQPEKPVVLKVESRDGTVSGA
# Rattus norvegicus [19] = assay: Inhibition of RAMH-induced dipsogenia in ip dosed rat dipsogenia model; assay type: functional
# Rattus norvegicus [20] = assay: Induction of wake promoting activity in Sprague-Dawley rat EEG/EMG model assessed as AUC of cumulative wake time at 10 mg/kg, ip measured after 4 hrs post dosing (reference value: 114 +/- 9 mins); assay type: functional; conditions: route intraperitoneal
# Rattus norvegicus [21] = assay: Induction of wake promoting activity in Sprague-Dawley rat EEG/EMG model assessed as AUC of cumulative wake time at 30 mg/kg, ip measured after 4 hrs post dosing (reference value: 114 +/- 9 mins); assay type: functional; conditions: route intraperitoneal
# Rattus norvegicus [22] = assay: Induction of wake promoting activity in Sprague-Dawley rat EEG/EMG model assessed as increase of wake latency at 30 mg/kg, ip measured after 4 hrs post dosing; assay type: functional; conditions: route intraperitoneal
# Rattus norvegicus [23] = assay: Induction of wake promoting activity in Sprague-Dawley rat EEG/EMG model assessed as time to maximal cumulative wake surplus at 30 mg/kg, ip measured after 6 hrs post dosing; assay type: functional; conditions: route intraperitoneal
# Rattus norvegicus [24] = assay: Induction of wake promoting activity in Sprague-Dawley rat EEG/EMG model assessed as time for recovered sleep latency per hrat 30 mg/kg, ip measured after 6 to 22 hrs post dosing; assay type: functional; conditions: route intraperitoneal
# Rattus norvegicus [25] = assay: Induction of wake promoting activity in Sprague-Dawley rat EEG/EMG model assessed as retained wake latency at 30 mg/kg, ip measured after 22 hrs post dosing; assay type: functional; conditions: route intraperitoneal
# Rattus norvegicus [26] = assay: Induction of wake promoting activity in Sprague-Dawley rat EEG/EMG model assessed as surplus wake time at 30 mg/kg, ip measured after 22 hrs post dosing; assay type: functional; conditions: route intraperitoneal
# Rattus norvegicus [27] = assay: Induction of wake promoting activity in Sprague-Dawley rat EEG/EMG model assessed as maximum cumulative wake surplus time at 10 mg/kg, ip measured after 3 hrs post dosing; assay type: functional; conditions: route intraperitoneal
# Rattus norvegicus [28] = assay: Induction of wake promoting activity in Sprague-Dawley rat EEG/EMG model assessed as maximum cumulative wake surplus time at 10 mg/kg, ip measured after 22 hrs post dosing; assay type: functional; conditions: route intraperitoneal
# Rattus norvegicus [29] = assay: Induction of wake promoting activity in Sprague-Dawley rat EEG/EMG model assessed as fold increase in wake latency at 30 mg/kg, ip measured after 4 hrs post dosing relative to control; assay type: functional; conditions: route intraperitoneal
# Histamine H1 receptor = Histamine H1 receptor (Homo sapiens, UniProt P35367); assay: Binding affinity to human histamine H1 receptor
# Sequence of Histamine H1 receptor (P35367 whole entry): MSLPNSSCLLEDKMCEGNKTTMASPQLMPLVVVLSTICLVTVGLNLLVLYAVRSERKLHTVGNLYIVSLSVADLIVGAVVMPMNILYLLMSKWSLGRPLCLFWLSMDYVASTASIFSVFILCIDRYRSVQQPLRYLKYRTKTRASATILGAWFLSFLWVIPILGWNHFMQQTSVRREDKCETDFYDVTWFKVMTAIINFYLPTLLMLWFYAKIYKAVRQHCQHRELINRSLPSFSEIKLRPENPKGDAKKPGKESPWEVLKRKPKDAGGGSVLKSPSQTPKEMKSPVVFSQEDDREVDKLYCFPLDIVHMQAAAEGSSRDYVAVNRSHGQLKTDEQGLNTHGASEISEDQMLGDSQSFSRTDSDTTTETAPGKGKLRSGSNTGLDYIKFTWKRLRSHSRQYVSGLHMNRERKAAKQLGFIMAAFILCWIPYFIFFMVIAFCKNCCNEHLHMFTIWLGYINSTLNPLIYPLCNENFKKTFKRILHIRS
# Histamine H2 receptor = Histamine H2 receptor (Homo sapiens, UniProt P25021); assay: Binding affinity to human histamine H2 receptor
# Sequence of Histamine H2 receptor (P25021 whole entry): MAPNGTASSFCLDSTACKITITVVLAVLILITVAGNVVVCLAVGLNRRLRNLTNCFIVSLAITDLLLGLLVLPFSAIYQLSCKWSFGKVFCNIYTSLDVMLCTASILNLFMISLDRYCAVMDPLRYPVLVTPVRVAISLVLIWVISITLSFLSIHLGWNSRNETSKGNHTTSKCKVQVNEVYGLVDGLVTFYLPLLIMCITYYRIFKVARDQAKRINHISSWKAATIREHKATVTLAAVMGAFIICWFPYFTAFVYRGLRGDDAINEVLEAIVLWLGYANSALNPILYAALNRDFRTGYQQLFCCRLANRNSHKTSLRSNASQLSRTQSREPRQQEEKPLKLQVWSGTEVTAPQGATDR
# Histamine H4 receptor = Histamine H4 receptor (Homo sapiens, UniProt Q9H3N8); assay: Binding affinity to human histamine H4 receptor
# Sequence of Histamine H4 receptor (Q9H3N8 whole entry): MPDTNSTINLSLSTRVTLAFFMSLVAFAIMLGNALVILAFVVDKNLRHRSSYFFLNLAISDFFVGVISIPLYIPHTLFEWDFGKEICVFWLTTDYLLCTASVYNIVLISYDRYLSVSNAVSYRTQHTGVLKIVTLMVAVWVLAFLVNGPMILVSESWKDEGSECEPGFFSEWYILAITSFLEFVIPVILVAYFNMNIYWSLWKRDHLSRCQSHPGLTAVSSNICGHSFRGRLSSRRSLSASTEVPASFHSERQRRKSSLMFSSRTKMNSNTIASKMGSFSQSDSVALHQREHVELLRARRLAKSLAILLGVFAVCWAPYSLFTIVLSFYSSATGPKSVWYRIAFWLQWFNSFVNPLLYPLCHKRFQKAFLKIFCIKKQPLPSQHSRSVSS
# Histamine H3 receptor [30] = molecular target: T1, Histamine H3 receptor; assay: Inhibition of basal activity of human histamine H3 receptor expressed in CHO cells assessed as inhibition of RAHM-induced [35S]GTPgammaS binding after 4 hrs by beta liquid scintillation counting; assay type: functional, cell-based
compound,measurement,setting,value
C[C@@H]1CCCN1CCCOc1ccc(-c2ccc(=O)n(Cc3ccccc3)c2)cc1,clearance,[1],171 mL/min/kg
same,bioavailability,[2],0%
same,Ki,Histamine H3 receptor [3],2 nM
same,Ki,Histamine H3 receptor [4],10 nM
C[C@@H]1CCCN1CCCOc1ccc(-c2ccc(=O)n(-c3ccc(F)cc3)c2)cc1,Ki,Histamine H3 receptor [3],4.7 nM
same,Ki,Histamine H3 receptor [4],9.6 nM
C[C@@H]1CCCN1CCCOc1ccc(-c2ccc(=O)n(-c3ccccc3)c2)cc1,clearance,[1],138 mL/min/kg
same,bioavailability,[2],17%
same,Ki,Histamine H3 receptor [3],1.8 nM
same,Ki,Histamine H3 receptor [4],19 nM
C[C@@H]1CCCN1CCCOc1ccc(-c2cc(C#N)c(=O)n(C)c2)cc1,Ki,Histamine H3 receptor [3],3.4 nM
same,Ki,Histamine H3 receptor [4],3 nM
C[C@@H]1CCCN1CCCOc1ccc(-c2cc(-c3ccccc3)c(=O)n(C)c2)cc1,Ki,Histamine H3 receptor [3],3.5 nM
same,Ki,Histamine H3 receptor [4],7.9 nM
C[C@@H]1CCCN1CCCOc1ccc(-c2ccn(C)c(=O)c2)cc1,Ki,Histamine H3 receptor [3],3.2 nM
same,Ki,Histamine H3 receptor [4],12 nM
C[C@@H]1CCCN1CCCOc1cccc(-c2ccc(=O)n(C)c2)c1,Ki,Histamine H3 receptor [3],112 nM
same,Ki,Histamine H3 receptor [4],> 500 nM
C[C@@H]1CCCN1CCCOc1ccc(-c2ccc(=O)[nH]c2)cc1,clearance,[1],96 mL/min/kg
same,bioavailability,[2],0%
same,Ki,Histamine H3 receptor [3],7.7 nM
same,Ki,Histamine H3 receptor [4],9 nM
C[C@@H]1CCCN1CCCOc1ccc(-c2cccn(C)c2=O)cc1,Ki,Histamine H3 receptor [3],18 nM
same,Ki,Histamine H3 receptor [4],144 nM
C[C@@H]1CCCN1CCCOc1ccc(-c2cccc(=O)n2C)cc1,Ki,Histamine H3 receptor [3],4.9 nM
same,Ki,Histamine H3 receptor [4],21 nM
C[C@@H]1CCCN1CCCOc1ccc(-c2ccc(=O)n(C)c2)cc1,Kb,Histamine H3 receptor [5],0.2 nM
same,Activity,Rattus norvegicus [6],Dose-dependent effect
same,half-life,[7],84 min
same,Vd,[8],1.4 L/kg
same,clearance,[1],11 mL/min/kg
same,AUC(0-t),[9],867 ng·h/mL
same,Cmax,[10],190 ng/mL
same,bioavailability,[2],11%
same,Kp,[11],1.7
same,concentration at 1 h,[12],2900 nM
same,Kp at 1 h,[13],1.9
same,solubility,[14],> 300 µg/mL
same,half-life,[15],> 40 min
same,half-life,[16],> 40 min
same,half-life,[17],> 40 min
same,half-life,[18],> 40 min
same,IC50,Cytochrome P450 1A2,> 30000 nM
same,IC50,Cytochrome P450 2C9,> 30000 nM
same,IC50,Cytochrome P450 2C19,> 30000 nM
same,IC50,Cytochrome P450 2D6,> 30000 nM
same,IC50,Cytochrome P450 3A4,> 30000 nM
same,ED50,Rattus norvegicus [19],0.03 mg/kg
same,inhibition,Rattus norvegicus [19],Dose-dependent effect
same,Time,Rattus norvegicus [20],160 min
same,Time,Rattus norvegicus [21],227 min
same,Activity,Rattus norvegicus [22],95%
same,Time,Rattus norvegicus [23],146 min
same,Time,Rattus norvegicus [24],6.3 min
same,Activity,Rattus norvegicus [25],35%
same,Time,Rattus norvegicus [26],51 min
same,Time,Rattus norvegicus [27],53 min
same,Time,Rattus norvegicus [28],33 min
same,fold change (FC),Rattus norvegicus [29],2
same,Ki,Histamine H3 receptor [3],0.7 nM
same,Ki,Histamine H3 receptor [4],8.5 nM
same,Ki,Histamine H1 receptor,> 10000 nM
same,Ki,Histamine H2 receptor,> 10000 nM
same,Ki,Histamine H4 receptor,> 10000 nM
same,EC50,Histamine H3 receptor [30],0.7 nM
C[C@@H]1CCCN1CCCOc1ccc(-c2cn(C)c(=O)c3ccccc23)cc1,clearance,[1],42 mL/min/kg
same,bioavailability,[2],8%
same,Ki,Histamine H3 receptor [3],0.9 nM
same,Ki,Histamine H3 receptor [4],2.4 nM
